The values that follow come from patent US6680379B1, “Organic anion transporter genes and proteins” (Metabasis Therapeutics, Inc., priority 1999, dated 2004).

Test [1] addresses T1, hOAT2A (Homo sapiens, UniProt Q9Y694).
T1 sequence (Q9Y694 1-546 isoform Q9Y694-2): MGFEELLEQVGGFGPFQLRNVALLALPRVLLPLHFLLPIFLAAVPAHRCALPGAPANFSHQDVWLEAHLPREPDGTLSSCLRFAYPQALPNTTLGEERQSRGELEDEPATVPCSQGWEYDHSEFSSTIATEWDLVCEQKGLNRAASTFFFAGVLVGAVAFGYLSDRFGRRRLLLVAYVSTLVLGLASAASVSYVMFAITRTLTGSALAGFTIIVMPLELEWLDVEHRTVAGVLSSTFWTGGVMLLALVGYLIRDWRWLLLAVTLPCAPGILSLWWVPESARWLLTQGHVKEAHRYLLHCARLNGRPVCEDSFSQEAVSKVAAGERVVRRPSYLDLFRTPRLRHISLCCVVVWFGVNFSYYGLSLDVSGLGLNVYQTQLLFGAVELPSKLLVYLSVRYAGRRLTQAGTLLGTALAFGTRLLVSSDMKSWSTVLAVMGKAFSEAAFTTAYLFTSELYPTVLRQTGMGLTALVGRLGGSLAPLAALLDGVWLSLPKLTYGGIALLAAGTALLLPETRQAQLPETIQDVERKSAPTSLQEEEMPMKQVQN
The test is described as follows: Competition assay of 3H-PAH uptake in EcR293/OAT2A cells. Format: cell-based. Further details: Isolation of Full-length Human OAT2A and OAT2B cDNA; expressed in transfected cells; host or cells: EcR293 (Invitrogen). The conditions noted are these: 100 μM competitor.

Test [2] deals with T1, hOAT2A. Briefly: 3H-PAH uptake in EcR293 cells stably containing pIND(sp1)-hOAT2A, ponasterone induced. Conditions: EcR293, 1.25 μg/ml ponasterone for 24 hours.
From the text: Vector pIND(sp1) (Invitrogen) contains the ecdysone-inducible promoter (EcRE). […] After cloning, the vectors were separately transfected into cell line EcR293 (Invitrogen). […] The pVgRXR vector constitutively expresses the ecdysone receptor and the retinoid X receptor (RXR). The ecdysone receptor and RXR form a heterodimer which, upon activation by the hormone ecdysone, binds to a promoter containing the EcRE. The pVgRXR vector was maintained within the EcR293 cell line by selection with 400 μg/ml zeocin. The pIND(sp1)-hOAT plasmids contain a neomycin resistance marker, and cells stably integrating the plasmids were selected for by culturing the cells in media supplemented with 400 μg/ml G418. After two weeks of selection, individual colonies appeared and were isolated and expanded. […] The cells were then subjected to standard transport assays.
Expression of hOAT1 at high levels can be easily achieved by inducing with ponasterone for twenty-four (24) hours.

`O=C1OC(c2ccc(O)c(S(=O)(=O)O)c2)(c2ccc(O)c(S(=O)(=O)O)c2)c2c(Br)c(Br)c(Br)c(Br)c21` [BSP, sulfobromophthalein]: the “effect on uptake of 3H-PAH in EcR293/OAT2A cells” value at hOAT2A [1] is reported as “blocked”; at hOAT2A [1] (listed as sulfobromophthalein), “competed”.

For the compound `Nc1ccc(C(=O)NCC(=O)O)cc1` [PAH, p-aminohippurate], on hOAT2A [2], the “3H-PAH uptake, ponasterone induced versus non-induced cells (hOAT2A)” value was “approximately 2.6 fold”.
